Results from patent US5411971A, “N-alkylenepiperidino compounds, their enantiomers and pharmaceutical compositions” (Elf Sanofi, priority 1991, dated 1995).
pKi: −log10 of the molar value. Structures can show the parent of a compound that is named as a salt. Values belong to the molecule of their own block, whether it stands above or below them.

Columns and labels:
substance P binding = test: Antagonism of binding of substance P (rat cortex membranes or IM9 cells, not stated which); conditions: preparation (rat cortex membranes or IM9 lymphoblastic cells) not given; read-out: Ki, antagonises the binding of substance P
[1] = molecular target: T1, neurokinin A binding, rat duodenum membranes (Rattus norvegicus, UniProt P16610); test: Antagonism of binding to NKA (neurokinin A), rat duodenum membranes; conditions: read-out: Ki, antagonises the binding of neurokinin A
T1 construct: rat duodenum membranes; from tissue; host or cells: rat duodenum membranes
T1 sequence (P16610 1-390): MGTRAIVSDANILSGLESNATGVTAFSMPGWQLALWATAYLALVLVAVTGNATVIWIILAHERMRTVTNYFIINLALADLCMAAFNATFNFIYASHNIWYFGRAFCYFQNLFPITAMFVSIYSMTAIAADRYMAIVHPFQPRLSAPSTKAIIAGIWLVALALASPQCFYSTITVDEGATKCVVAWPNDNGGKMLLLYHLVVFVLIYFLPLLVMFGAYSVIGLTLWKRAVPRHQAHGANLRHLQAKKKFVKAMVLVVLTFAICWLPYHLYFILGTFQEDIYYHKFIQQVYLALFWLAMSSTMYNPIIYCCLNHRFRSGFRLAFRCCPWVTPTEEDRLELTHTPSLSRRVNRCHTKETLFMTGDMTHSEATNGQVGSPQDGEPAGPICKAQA

[2] = molecular target: T2, eledoisin binding, rat membranes (Rattus norvegicus, UniProt P16177); test: Antagonism of binding to eledoisin, rat membranes; conditions: read-out: Ki, antagonises the binding of eledoisin
T2 construct: rat membranes; from tissue; brain cortex inferred from the cited Foster et al. 1988
T2 sequence (P16177 1-452): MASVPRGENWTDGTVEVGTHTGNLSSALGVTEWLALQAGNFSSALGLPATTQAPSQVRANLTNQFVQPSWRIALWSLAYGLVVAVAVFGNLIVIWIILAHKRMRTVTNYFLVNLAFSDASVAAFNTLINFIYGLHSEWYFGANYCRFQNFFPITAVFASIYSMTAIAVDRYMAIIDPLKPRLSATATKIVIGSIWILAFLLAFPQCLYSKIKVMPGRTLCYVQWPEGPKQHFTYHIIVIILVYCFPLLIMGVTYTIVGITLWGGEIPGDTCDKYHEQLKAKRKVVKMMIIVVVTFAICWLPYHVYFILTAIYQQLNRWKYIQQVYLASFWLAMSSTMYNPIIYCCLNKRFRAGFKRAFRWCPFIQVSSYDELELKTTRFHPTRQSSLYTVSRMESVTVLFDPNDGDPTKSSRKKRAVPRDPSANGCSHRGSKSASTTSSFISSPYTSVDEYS
Description: Foster et al., Br. J. Pharmacol., 1988, 94, 602-608.
Eledoisin is a peptide of batrachian origin which is equivalent to neurokinin B.

Compound: O=C(NCC(CCN1CCC(Sc2ccccn2)CC1)c1ccc(Cl)c(Cl)c1)c1ccc(Cl)cc1Cl (stereo not drawn) [Compound 4]
pKi (substance P binding): 7.39

Compound: CC(=O)N(c1ccccc1)C1CCN(CCC(CN(C)C(=O)c2ccccc2)c2ccc(Cl)c(Cl)c2)CC1 (stereo not drawn) [Compound 8, N-[4-(N'-4-Acetylanilino-1-piperidinyl)-2-(3,4-dichlorophenyl)butyl]-N-methylbenzamide hydrochloride]
pKi [1]: 8.26

pKi [2]: 6.40
Compound: O=C(NCC(CCN1CCC(Nc2ccccc2)CC1)c1ccc(Cl)c(Cl)c1)c1ccc(F)c2ccccc12 (stereo not drawn) [Compound 9]
